Values of other authors in article PMC7993274 (Clinical and Translational Science, 2020).

Legend:
[1] = patients with rheumatoid arthritis (N = 3,492); cited from earlier work
[2] = levels peaking 2 weeks post‐treatment; cited from earlier work

For `CCS(=O)(=O)N1CC(CC#N)(n2cc(-c3ncnc4[nH]ccc34)cn2)C1` [baricitinib], the “venous thromboembolism incidence rate” value [1] is given as 0.5 per 100 patient‐years and the “effect on platelet counts” value [2] is given as “transiently increase platelet counts”.
